Laboratory results published in patent US20170066717A1, “NEW PHENYLAZETIDINECARBOXYLATE OR -CARBOXAMIDE COMPOUNDS” (INVENTIVA, priority 2014, published 2017).
Counter-ions that a name gives are not always drawn.

How the values were obtained:
NURR-1/RXRα = biological target: T1, NURR-1/RXRα (Homo sapiens, UniProt P19793); test: Transactivation test, NURR-1-Gal4/RXRα, luciferase reporter in Cos-7 cells; format: cell-based; conditions: for Emax: COS-7, induction level relative to reference XCT0135908 at 2×10^−5 M (=100%), read-out: hNurr1_RXRaFL Emax (%); for EC50: Cos-7 cells, NURR-1-Gal4/RXRα, luciferase reporter, read-out: hNurr1_RXRaFL EC50
T1 construct: expressed in transfected cells; host or cells: Cos-7 cells
T1 sequence (P19793 whole entry, the tested form may be a part): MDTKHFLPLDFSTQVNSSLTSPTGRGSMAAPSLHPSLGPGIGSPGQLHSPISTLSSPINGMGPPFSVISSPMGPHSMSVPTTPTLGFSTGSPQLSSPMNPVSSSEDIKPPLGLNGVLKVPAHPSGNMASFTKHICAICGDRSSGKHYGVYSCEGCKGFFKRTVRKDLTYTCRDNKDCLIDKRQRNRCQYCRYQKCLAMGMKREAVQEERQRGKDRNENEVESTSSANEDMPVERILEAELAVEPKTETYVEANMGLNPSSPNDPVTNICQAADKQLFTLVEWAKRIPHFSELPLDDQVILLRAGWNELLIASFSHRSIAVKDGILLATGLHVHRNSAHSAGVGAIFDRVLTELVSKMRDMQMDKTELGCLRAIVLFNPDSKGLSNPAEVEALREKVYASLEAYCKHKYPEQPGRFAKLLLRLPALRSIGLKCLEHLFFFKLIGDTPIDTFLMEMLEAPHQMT
T1 sequence (P43354 whole entry partner, the tested form may be a part): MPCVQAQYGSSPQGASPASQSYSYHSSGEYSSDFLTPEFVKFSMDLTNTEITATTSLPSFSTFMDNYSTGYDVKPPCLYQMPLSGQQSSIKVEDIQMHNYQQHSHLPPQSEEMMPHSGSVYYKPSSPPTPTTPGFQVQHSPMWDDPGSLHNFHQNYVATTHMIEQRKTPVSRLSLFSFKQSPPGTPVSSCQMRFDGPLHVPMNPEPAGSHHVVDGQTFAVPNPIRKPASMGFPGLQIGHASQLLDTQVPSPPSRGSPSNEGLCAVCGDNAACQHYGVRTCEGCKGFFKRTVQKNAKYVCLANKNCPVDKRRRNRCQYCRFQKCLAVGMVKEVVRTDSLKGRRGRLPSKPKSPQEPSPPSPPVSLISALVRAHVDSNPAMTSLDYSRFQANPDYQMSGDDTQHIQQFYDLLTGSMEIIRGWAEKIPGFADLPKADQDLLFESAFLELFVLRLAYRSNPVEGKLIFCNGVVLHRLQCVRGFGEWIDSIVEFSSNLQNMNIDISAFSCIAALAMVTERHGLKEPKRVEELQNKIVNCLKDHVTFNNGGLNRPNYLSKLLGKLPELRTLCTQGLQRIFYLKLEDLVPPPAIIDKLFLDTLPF
T1 sequence (P04386 1-147 partner limits assumed): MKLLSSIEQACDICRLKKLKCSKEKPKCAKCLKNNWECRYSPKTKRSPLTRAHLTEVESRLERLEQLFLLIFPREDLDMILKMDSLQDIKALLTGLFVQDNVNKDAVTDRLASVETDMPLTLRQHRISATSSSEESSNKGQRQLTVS

NURR-1/RXRγ = biological target: T2, NURR-1/RXRγ (Homo sapiens, UniProt P48443); test: Transactivation test, NURR-1-Gal4/RXRγ, luciferase reporter in Cos-7 cells; format: cell-based; conditions: for Emax: COS-7, induction level relative to reference XCT0135908 at 2×10^−5 M (=100%), read-out: hNurr1_RXRgFL Emax (%); for EC50: Cos-7 cells, NURR-1-Gal4/RXRγ, luciferase reporter, read-out: hNurr1_RXRgFL EC50
T2 construct: expressed in transfected cells; host or cells: Cos-7 cells
T2 sequence (P48443 whole entry, the tested form may be a part): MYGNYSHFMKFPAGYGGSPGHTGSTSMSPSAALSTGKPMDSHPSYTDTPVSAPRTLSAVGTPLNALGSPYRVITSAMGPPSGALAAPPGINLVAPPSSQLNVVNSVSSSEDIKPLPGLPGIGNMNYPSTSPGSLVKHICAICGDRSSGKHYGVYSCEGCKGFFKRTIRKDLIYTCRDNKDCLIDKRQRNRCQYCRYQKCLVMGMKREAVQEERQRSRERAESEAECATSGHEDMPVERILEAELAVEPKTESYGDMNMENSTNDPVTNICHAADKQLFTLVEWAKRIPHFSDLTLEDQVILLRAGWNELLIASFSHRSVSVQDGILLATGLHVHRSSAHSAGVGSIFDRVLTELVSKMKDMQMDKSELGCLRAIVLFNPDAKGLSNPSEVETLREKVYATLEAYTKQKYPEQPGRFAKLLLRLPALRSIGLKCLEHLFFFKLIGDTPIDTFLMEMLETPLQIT
T2 sequence (P43354 whole entry partner, the tested form may be a part): as the sequence (P43354 whole entry partner, the tested form may be a part) above
T2 sequence (P04386 1-147 partner limits assumed): as the sequence (P04386 1-147 partner limits assumed) above

[1] = induction level relative to reference XCT0135908 at 2×10^−5 M (=100%)

CCc1cc2c(c(-c3cccc(N4CC(C(=O)O)C4)c3)c1)NCC(C)(C)O2 (as salt: ammonium) [Example 207, tert-butylammonium 1-[3-(7-ethyl-2,2-dimethyl-3,4-dihydro-1,4-benzoxazin-5-yl)phenyl]azetidine-3-carboxylate]
melting point: 100 to 124 °C

COCCCNC(=O)C1CN(c2cccc(-n3cc(C)c4cc(C(F)(F)F)ccc43)c2)C1 [Example 172, N-(3-methoxvpypropyl)-1-[3-[3-methyl-5-(trifluoromethyl)indol-1-yl]phenyl]azetidine-3-carboxamide]
Emax (NURR-1/RXRα): 104% | EC50 (NURR-1/RXRα): < 1 nM | Emax (NURR-1/RXRγ): 114% | EC50 (NURR-1/RXRγ): 5 nM

Cc1cn(-c2cccc(N3CC(C(=O)NCCCN(C)C)C3)c2)c2ccc(C(F)(F)F)cc12 [Example 174, N-[3-(dimethylamino)propyl]-1-[3-[3-methyl-5-(trifluoromethyl)indol-1-yl]phenyl]-azetidine-3-carboxamide]
Emax (NURR-1/RXRα): 91% | EC50 (NURR-1/RXRα): 341 nM | Emax (NURR-1/RXRγ): 95% | EC50 (NURR-1/RXRγ): 620 nM

Cc1cn(-c2cccc(N3CC(C(=O)NCCCCN(C)C)C3)c2)c2ccc(C(F)(F)F)cc12 [Example 175, N-[4-(dimethylamino)butyl]-1-[3-[3-methyl-5-(trifluoromethyl)indol-1yl]phenyl]-azatidine-3-carboxamide]
Emax (NURR-1/RXRα): 77% | EC50 (NURR-1/RXRα): 647 nM | Emax (NURR-1/RXRγ): 84% | EC50 (NURR-1/RXRγ): 1260 nM

Cc1cn(-c2cccc(N3CC(C(=O)NCCN4CCNC4=O)C3)c2)c2ccc(C(F)(F)F)cc12 [Example 176, 1-[3-[3-methyl-5-(trifluoromethyl)indol-1-yl]-phenyl]N-[2-(2-oximidazolidin-1-yl)ethyl]azetidine-3-carboxamide]
Emax (NURR-1/RXRα): 113% | EC50 (NURR-1/RXRα): 12 nM | Emax (NURR-1/RXRγ): 130% | EC50 (NURR-1/RXRγ): 28 nM

Cc1cn(-c2cccc(N3CC(C(=O)NCC4CC4)C3)c2)c2ccc(C(F)(F)F)cc12 [Example 177, N-(cyclopropylmethyl)-1-[3-[3-methyl-5-(trifluoromethyl)indol-1-yl]phenyl]azetidine-3-carboxamide]
Emax (NURR-1/RXRα): 104% | EC50 (NURR-1/RXRα): 7 nM | Emax (NURR-1/RXRγ): 109% | EC50 (NURR-1/RXRγ): 10 nM

Cc1cn(-c2cccc(N3CC(C(=O)NCC(F)(F)F)C3)c2)c2ccc(C(F)(F)F)cc12 [Example 178, 1-[3-[3-methyl-5-(trifluoromethyl)indol-1-yl]phenyl]-N-(2,2,2-trifluoromethyl)azetidine-3-carboxamide]
Emax (NURR-1/RXRα): 115% | EC50 (NURR-1/RXRα): 14 nM | Emax (NURR-1/RXRγ): 133% | EC50 (NURR-1/RXRγ): 146 nM

Cc1cn(-c2cccc(N3CC(C(=O)NC4CCC4)C3)c2)c2ccc(C(F)(F)F)cc12 [Example 179]
Emax (NURR-1/RXRα): 119% | EC50 (NURR-1/RXRα): 8 nM | Emax (NURR-1/RXRγ): 144% | EC50 (NURR-1/RXRγ): 12 nM

Cc1cn(-c2cccc(N3CC(C(=O)NC4CCOCC4)C3)c2)c2ccc(C(F)(F)F)cc12 [Example 180, 1-[3-[3-methyl-5-(trifluorometnyl)indol-1-yl]phenyl]-N-tetrahydropyran-4-yl-azetidine-3-carboxamide]
Emax (NURR-1/RXRα): 103% | EC50 (NURR-1/RXRα): 54 nM | Emax (NURR-1/RXRγ): 110% | EC50 (NURR-1/RXRγ): 86 nM

Cc1cn(-c2cccc(N3CC(C(=O)NCCN4CCN(C)CC4)C3)c2)c2ccc(C(F)(F)F)cc12 [Example 181, N-[2-(4-methylipiperazin-1-yl)ethyl]-1-[3-[3-methyl-5-(trifluoromethyl)indol-1-yl]phenyl]azetidine-3-carboxamide]
Emax (NURR-1/RXRα): 103% | EC50 (NURR-1/RXRα): 168 nM | Emax (NURR-1/RXRγ): 96% | EC50 (NURR-1/RXRγ): 293 nM

CC(=O)NCCCNC(=O)C1CN(c2cccc(-n3cc(C)c4cc(C(F)(F)F)ccc43)c2)C1 [Example 182, N-(3-acetamidopropyl)-1-[3-[3-methyl-5-(trifluoromethyl)indol-1-yl]phenyl]azetidine-3-carboxylate]
Emax (NURR-1/RXRα): 98% | EC50 (NURR-1/RXRα): 7 nM | Emax (NURR-1/RXRγ): 111% | EC50 (NURR-1/RXRγ): 14 nM

Cc1cn(-c2cccc(N3CC(C(=O)NC4CCC(F)(F)CC4)C3)c2)c2ccc(C(F)(F)F)cc12 [Example 183, N-(4,4-difluorocyclophexyl)-1-[3-[3-5-(trifluoromethyl)indol-1-yl]phenyl]-azetidine-3-carboxamide]
Emax (NURR-1/RXRα): 108% | EC50 (NURR-1/RXRα): 92 nM | Emax (NURR-1/RXRγ): 127% | EC50 (NURR-1/RXRγ): 316 nM

CCCc1ccc(C(C)C)cc1-c1cccc(N2CC(C(=O)O)C2)c1 [Example 195, piperazin-1-ium-1-[3-(5-isopropyl-2-propylphenyl)phenyl]azetidine-3-carboxylate]
Emax (NURR-1/RXRα): 105% | EC50 (NURR-1/RXRα): 7 nM | EC50 (NURR-1/RXRγ): 116 nM

CN1CC2(CCC2)Oc2cc(C(F)(F)F)cc(-c3cccc(N4CC(C(=O)O)C4)c3)c21 [Example 203, sodium 1-[3-[4-methul-7-(trifluoromethyl)spiro[3H-1,4-benzoxazine-2,1′-cyclobutane]-5-yl]phenyl]azetidine-3-carboxylate]
Emax (NURR-1/RXRα): 80% | EC50 (NURR-1/RXRα): 0.69 nM | Emax (NURR-1/RXRγ): 63% | EC50 (NURR-1/RXRγ): 4 nM

CCc1cc2c(c(-c3cccc(N4CC(C(=O)O)C4)c3)c1)NCC(C)(C)O2 [Example 207, tert-butylammonium 1-[3-(7-ethyl-2,2-dimethyl-3,4-dihydro-1,4-benzoxazin-5-yl)phenyl]azetidine-3-carboxylate]
Emax (NURR-1/RXRα): 112% | EC50 (NURR-1/RXRα): 15 nM | Emax (NURR-1/RXRγ): 103% | EC50 (NURR-1/RXRγ): 16 nM

CC1(C)CN(c2cccc(N3CC(C(=O)O)C3)c2)c2ccc(Br)cc2O1 [Example 222, sodium 1-[3-(7-bromo-2,2-dimethyl-3H-1,4-benzoxazin-4-yl)phenyl]azetidine-3-carbxoylate]
Emax (NURR-1/RXRα): 115% | EC50 (NURR-1/RXRα): 19 nM | Emax (NURR-1/RXRγ): 94% | EC50 (NURR-1/RXRγ): 27 nM

CC(C)Cc1ccc2c(c1)OC(C)(C)CN2c1cccc(N2CC(C(=O)O)C2)c1 [Example 230, 1-[3-(7-isobutyl-2,2-dimethyl-3H-1,4-benzoxazin-4yl)phenyl]azetidine-3-carboxylic acid]
Emax (NURR-1/RXRα): 62% | EC50 (NURR-1/RXRα): 535 nM | Emax (NURR-1/RXRγ): 85% | EC50 (NURR-1/RXRγ): 1000 nM

CC(C)Cc1ccc2c(c1)OC(C)(C)CN2c1cccc(N2CC(C(=O)O)C2)c1 [Example 231, tert-butylammonium 1-[3-(7-isobutyl-2,2-dimethyl-3H-1,4-benzoxazin-4yl)phenyl]azetidine-3-carboxylate]
EC50 (NURR-1/RXRα): 318 nM | hNurr1_RXRaFL Emax (%) (NURR-1/RXRα; [1]): 58% | EC50 (NURR-1/RXRγ): 792 nM | hNurr1_RXRgFL Emax (%) (NURR-1/RXRγ; [1]): 66%

O=C(O)C1CN(c2cccc(N3CCOc4cc(C(F)(F)F)ncc43)c2)C1 [Example 240, sodium 1-[3-[7-(trifluoromethyl)-2,3-dihydropurido[4,3][1,4]oxazin-4-yl]phenyl]azetidine-3-carboxylate]
Emax (NURR-1/RXRα): 98% | EC50 (NURR-1/RXRα): 1830 nM | Emax (NURR-1/RXRγ): 83% | EC50 (NURR-1/RXRγ): 3260 nM

O=C(O)C1CN(c2cccc(N3CC4(CCCC4)c4cc(Cl)ccc43)c2)C1 [Example 257, tert-butylammonium 1-[3-(5′-chlorospiro[cyclopentane-1,3′-indolin]-1′-yl)phenyl]azetidine-3-carboxyate]
Emax (NURR-1/RXRα): 103% | EC50 (NURR-1/RXRα): 23 nM | Emax (NURR-1/RXRγ): 89% | EC50 (NURR-1/RXRγ): 59 nM

CCC1(CC)C=C(c2cccc(N3CC(C(=O)O)C3)c2)c2ccc(C(F)(F)F)cc2O1 [Example 265]
Emax (NURR-1/RXRα): 79% | EC50 (NURR-1/RXRα): 3 nM | Emax (NURR-1/RXRγ): 79% | EC50 (NURR-1/RXRγ): 8 nM

CN(C)CCOC(=O)C1CN(c2cccc(N3CC(C)(C)Oc4cc(C(F)(F)F)ccc43)c2)C1 [Example 272, 2-dimethylaminoethyl 1-[3-[2,2-dimethyl-7-(trifluomethyl)-3H-1,4-benzoxazin-4-yl]phenyl]azetidine-3-carboxylate]
Emax (NURR-1/RXRα): 117% | EC50 (NURR-1/RXRα): 4 nM | Emax (NURR-1/RXRγ): 124% | EC50 (NURR-1/RXRγ): 4 nM

CC1(C)CN(c2cccc(N3CC(C(=O)NCCO)C3)c2)c2ccc(C(F)(F)F)cc2O1 [Example 275, 1-[3-[2,2-dimethyl-7-(trifluoromethyl)-3H-1,4-benzoxazin-4-yl]phenyl]-N-(2-hydroxyethyl)azetidine-3-carboxamide]
Emax (NURR-1/RXRα): 109% | EC50 (NURR-1/RXRα): 8 nM | Emax (NURR-1/RXRγ): 98% | EC50 (NURR-1/RXRγ): 44 nM

CC1(C)CN(c2cccc(N3CC(C(=O)NC(CO)CO)C3)c2)c2ccc(C(F)(F)F)cc2O1 [Example 276, 1-[3-[2,2-dimethyl-7-(trifluoromethyl)-3H-1,4-benzoxazin-4-yl]phenyl]N-[2-hydroxy-1-(hydroxymethyl)ethyl]azetidine-3-carboxamide]
Emax (NURR-1/RXRα): 105% | EC50 (NURR-1/RXRα): 15 nM | Emax (NURR-1/RXRγ): 92% | EC50 (NURR-1/RXRγ): 150 nM

CC1(C)CN(c2cccc(N3CC(C(=O)NCC(O)CO)C3)c2)c2ccc(C(F)(F)F)cc2O1 (stereo not shown) [Example 277, N-(2,3-dihydroxypropyl)-1-[3-[2,2-dimethyl-7-(trifluoromethyl)-3H-1,4-benzoxazin-4-yl]phenyl]azetidine-3-carboxamide]
Emax (NURR-1/RXRα): 103% | EC50 (NURR-1/RXRα): 19 nM | Emax (NURR-1/RXRγ): 97% | EC50 (NURR-1/RXRγ): 52 nM

CC1(C)CN(c2cccc(N3CC(C(=O)NCCCO)C3)c2)c2ccc(C(F)(F)F)cc2O1 [Example 278, 1-[3-[2,2-dimethyl-7-(trifgluoromethyl)-3H-1,4-benzoxazin-4-yl]phenyl]-N-(3-hydroxypropyl)azetidine-3-carboxamide]
Emax (NURR-1/RXRα): 110% | EC50 (NURR-1/RXRα): 29 nM | Emax (NURR-1/RXRγ): 117% | EC50 (NURR-1/RXRγ): 74 nM

CN(C)CCNC(=O)C1CN(c2cccc(N3CC(C)(C)Oc4cc(C(F)(F)F)ccc43)c2)C1 [Example 279, N-3(2-dimethylaminoethyl)-1-[3-[2,2-dimethyl-7-(trifluoromethyl)-3H-1,4-benzoxazin-4-yl]phenyl]azetidine-3-carboxamide]
Emax (NURR-1/RXRα): 95% | EC50 (NURR-1/RXRα): 375 nM | Emax (NURR-1/RXRγ): 79%
